Test results published in ChEMBL document CHEMBL1629650 (2009).
≈ marks a conversion by molar mass, not a printed value.

Tests used:
Format in all cases: functional
[1] = tested on: Mycobacterium tuberculosis; test: Antibacterial activity against HYG cassette-positive Mycobacterium tuberculosis B5201 by modified conventional agar proportion method
[2] = tested on: Mycobacterium tuberculosis; test: Antibacterial activity against HYG cassette-positive Mycobacterium tuberculosis RvAS9 by modified conventional agar proportion method
[3] = tested on: Mycobacterium tuberculosis; test: Antibacterial activity against HYG cassette-positive Mycobacterium tuberculosis Rv8100 by modified conventional agar proportion method
[4] = tested on: Mycobacterium tuberculosis; test: Antibacterial activity against HYG cassette-positive Mycobacterium tuberculosis B5401 by modified conventional agar proportion method
[5] = tested on: Mycobacterium tuberculosis; test: Antibacterial activity against HYG cassette-negative Mycobacterium tuberculosis H37Rv by modified conventional agar proportion method
[6] = tested on: Mycobacterium tuberculosis; test: Antibacterial activity against HYG cassette-positive Mycobacterium tuberculosis Rv4401 by modified conventional agar proportion method
[7] = tested on: Mycobacterium tuberculosis; test: Antibacterial activity against HYG cassette-positive Mycobacterium tuberculosis BAS10 by modified conventional agar proportion method
[8] = tested on: Mycobacterium tuberculosis; test: Antibacterial activity against HYG cassette-positive Mycobacterium tuberculosis B5400 by modified conventional agar proportion method
[9] = tested on: Mycobacterium tuberculosis; test: Antibacterial activity against Mycobacterium tuberculosis Beijing by modified conventional agar proportion method
[10] = tested on: Mycobacterium tuberculosis; test: Antibacterial activity against Mycobacterium tuberculosis H37Rv by modified conventional agar proportion method
[11] = tested on: Mycobacterium tuberculosis; test: Antibacterial activity against HYG cassette-positive Mycobacterium tuberculosis Rv8101 by modified conventional agar proportion method
[12] = tested on: Mycobacterium tuberculosis; test: Antibacterial activity against HYG cassette-positive Mycobacterium tuberculosis Rv4400 by modified conventional agar proportion method
[13] = tested on: Mycobacterium tuberculosis; test: Antibacterial activity against HYG cassette-positive Mycobacterium tuberculosis B5200 by modified conventional agar proportion method
[14] = tested on: Mycobacterium tuberculosis; test: Antibacterial activity against HYG cassette-negative Mycobacterium tuberculosis Beijing by modified conventional agar proportion method

CC[C@@H](CO)NCCN[C@@H](CC)CO [ETHAMBUTOL] gave an MIC [1] of 5 µg/mL (≈ 24.5 µM), an MIC [2] of 5 µg/mL (≈ 24.5 µM) and an MIC [3] of 5 µg/mL (≈ 24.5 µM). The MIC [4] was 5 µg/mL (≈ 24.5 µM), the MIC [5] was 5 µg/mL (≈ 24.5 µM) and the MIC [6] was 10 µg/mL (≈ 48.9 µM). It also gave an MIC [7] of 5 µg/mL (≈ 24.5 µM), an MIC [8] of 5 µg/mL (≈ 24.5 µM) and an MIC [9] of 5 µg/mL (≈ 24.5 µM). The MIC [10] was 5 µg/mL (≈ 24.5 µM), the MIC [11] was 5 µg/mL (≈ 24.5 µM) and the MIC [12] was 10 µg/mL (≈ 48.9 µM). For the same compound, the MIC [13] was 5 µg/mL (≈ 24.5 µM) and the MIC [14] was 5 µg/mL (≈ 24.5 µM).
